For 13 molecules, pKa and pKa value determined results are on record in patent US7083655B2, “Hair dye composition” (Kao Corporation, priority 2002, dated 2006).

Each structure is given as a SMILES string.

One series in a line: Measurement of pKa value (spectrophotometric titration). Conditions: DMF/water (1/1) solution, 2×10^−5 mol/l, titrated from pH 2 with NaOH, UV-visible spectrum, read-out: pKa value determined. It is filed as physicochemical. The method, then: pKa values of the azo dyes described below were determined by the following method; The dye was dissolved in a solution of a DMF/water (1/1) volume ratio to a final concentration of 2×10^−5 mol/l. After the resulting solution was adjusted to pH 2, using 1.0 mol/l hydrochloric acid, the solution was titrated with aqueous 1.0 mol/l sodium hydroxide solution. Recording the change of the visible ultra-violet absorption spectrum, the inflection point was determined by regression analysis.
For `CCSc1nsc(/N=N/c2cc(Cl)c(O)cc2Cl)n1` [Dye D-38], the pKa – broadly, the negative logarithm of the acid dissociation constant – came out at 3.5.

`CC(C)CSc1nnc(/N=N/c2cc(Cl)c(O)c(Cl)c2Cl)s1` [Dye D-45]: the pKa was 2.28.

For the molecule `CC(=O)Nc1cc(/N=N/c2nncs2)c(NC(C)=O)cc1O` [Dye D-46], the pKa turned out to be 5.15.

As for `Cc1nsc(/N=N/c2cc(F)c(O)c(F)c2)c1C#N` [Dye D-43], the pKa is 3.9.

Regarding `Cc1cc(/N=N/c2snc(C)c2C#N)ccc1O` [Dye D-37], the pKa worked out at 6.37.

Regarding `Cc1nsc(/N=N/c2ccc(O)c(Cl)c2)c1C#N` [Dye D-41], the pKa was determined as 5.02.

Regarding `CCSc1nsc(/N=N/c2cc(Cl)c(O)c(NC(=O)CC)c2)n1` [Dye D-30], the pKa is 3.05.

Turning to `Oc1c(Cl)cc(/N=N/c2nncs2)cc1Cl` [Dye D-56], the pKa worked out at 3.56.

Take `CC(=O)Nc1cc(/N=N/c2nncs2)ccc1O` [Dye D-29]: the pKa is 6.04.

As to `Oc1cc(Cl)c(/N=N/c2nc3ccc(Cl)cc3s2)cc1Cl` [Dye D-40], the pKa was determined as 4.46.

As to `COc1cc(/N=N/c2snc(C)c2C#N)ccc1O` [Dye D-39], the pKa is 5.52.

The same series, now with this note: DMF/water (1/1), 2×10^−5 mol/l, titrated from pH 2 with NaOH, UV-visible spectrum.
In the case of `Cc1cc(/N=N/c2nc(-c3cccc(NS(C)(=O)=O)c3)ns2)cc(NCOc2ccccc2NS(C)(=O)=O)c1O` [Dye D-34], the pKa value determined is listed as 4.39.

`Oc1c(NCOc2ccncc2)cc(/N=N/c2nc(-c3ccccc3)no2)c2ccccc12` [Dye D-49] had a pKa value determined of 5.39.
